Earlier results in patent publication US20040175342A1, “Process of making and using composition containing oxidation-sensitive hydrophilic active principle and maleic anhydride copolymer” (L'OREAL, priority 2002, published 2004).

Experiments:
[1] = tested on: reconstructed epidermides
[2] = tested on: reconstructed epidermides; details: after treatment
[3] = tested on: keratinocytes

bioavailability | Compound | synthesis of ceramides [1] | barrier function of reconstructed epidermides [2] | effect on differentiation of keratinocytes [3]
– | O=C1O[C@H]([C@@H](O)CO)C(O)=C1O [Ascorbic acid, ascorbic acid] | increase | improved | prodifferentiating effect
– | O=C1O[C@H]([C@@H](O)CO)C(O)=C1O[C@H]1O[C@H](CO)[C@@H](O)[C@H](O)[C@H]1O [ascorbyl glucoside] | this effect has also been demonstrated | – | –
very low | O=C1O[C@H]([C@@H](O)CO)C([O-])=C1OP(=O)([O-])[O-].O=C1O[C@H]([C@@H](O)CO)C([O-])=C1OP(=O)([O-])[O-].[Mg+2].[Mg+2].[Mg+2] [magnesium ascorbyl phosphate] | this effect has also been demonstrated | – | –
